PubChem BioAssay AID330 (DTP/NCI, 2004)
“And” between values parts separate entries of the source, which are not always exact repeats. Identical values can stand only once. Toxic doses and inconclusive results are not listed. How the source made its calls: active means survival T/C of 150% or more; inactive means T/C below 125% in these data.

Test system: P388 leukemia ip, CD2F1 mice, survival T/C
Assay: NCI In Vivo Anticancer Drug Screen. Data for tumor model P388 Leukemia (intraperitoneal) in CD2F1 (CDF1) mice
Details: endpoint: median survival time, higher = longer survival
Method in brief: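 Mice carrying the transplanted tumor received test compound or vehicle. Survival was recorded in each group, and the value is the treated-group measurement divided by that of the vehicle-treated control group.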

[1] = dose: 50.0 mg/kg/injection, schedule: Q01DX009 (ip), vehicle: Klucel (hydroxypropylcellulose) (HPC)
[2] = dose: 100.0 mg/kg/injection, schedule: Q01DX009 (ip), vehicle: Klucel (hydroxypropylcellulose) (HPC)
[3] = dose: 200.0 mg/kg/injection, schedule: Q01DX009 (ip), vehicle: Klucel (hydroxypropylcellulose) (HPC)
[4] = dose: 50.0 mg/kg/injection, schedule: Q01DX009 (ip), vehicle: saline
[5] = dose: 100.0 mg/kg/injection, schedule: Q01DX009 (ip), vehicle: saline
[6] = dose: 200.0 mg/kg/injection, schedule: Q01DX009 (ip), vehicle: saline
[7] = dose: 100.0 mg/kg/injection, schedule: Q01DX001 (ip), vehicle: Klucel (hydroxypropylcellulose) (HPC)
[8] = dose: 200.0 mg/kg/injection, schedule: Q01DX001 (ip), vehicle: Klucel (hydroxypropylcellulose) (HPC)
[9] = dose: 400.0 mg/kg/injection, schedule: Q01DX001 (ip), vehicle: Klucel (hydroxypropylcellulose) (HPC)
[10] = dose: 50.0 mg/kg/injection, schedule: Q01DX005 (ip), vehicle: saline with Tween-80
[11] = dose: 100.0 mg/kg/injection, schedule: Q01DX005 (ip), vehicle: saline with Tween-80
[12] = dose: 25.0 mg/kg/injection, schedule: Q01DX009 (ip), vehicle: saline
[13] = dose: 200.0 mg/kg/injection, schedule: Q01DX005 (ip), vehicle: saline with Tween-80
[14] = dose: 12.5 mg/kg/injection, schedule: Q01DX009 (ip), vehicle: saline with Tween-80
[15] = dose: 25.0 mg/kg/injection, schedule: Q01DX009 (ip), vehicle: saline with Tween-80
[16] = dose: 50.0 mg/kg/injection, schedule: Q01DX009 (ip), vehicle: saline with Tween-80
[17] = dose: 60.0 mg/kg/injection, schedule: Q01DX005 (ip), vehicle: Klucel (hydroxypropylcellulose) (HPC)
[18] = dose: 120.0 mg/kg/injection, schedule: Q01DX005 (ip), vehicle: Klucel (hydroxypropylcellulose) (HPC)

Measured: T/C

CC(C)N(CCO)CC(O)Cn1cnc2c(N)ncnc21 (stereo not given) (tested in a mixture with another compound)
inactive: dose: 60.0 mg/kg/injection, schedule: Q01DX005 (ip), vehicle: saline 97 % of control | dose: 120.0 mg/kg/injection, schedule: Q01DX005 (ip), vehicle: saline 94 % of control | dose: 240.0 mg/kg/injection, schedule: Q01DX005 (ip), vehicle: saline 93 % of control

Cc1cc([N+](=O)[O-])ccc1NC(=O)n1nnc2cc(Cl)ccc21
inactive: [1] 98 % of control | [2] 98 % of control | [3] 107 % of control

O=C1CSc2cc(F)ccc2N1
inactive: [4] 91 % of control | [5] 91 % of control | [6] 97 % of control

CN(C)c1ccc(C(=O)C2(O)CCCC(C)(C)C2)cc1 (stereo not given)
inactive: [7] 103 % of control | [8] 101 % of control | [9] 101 % of control

Oc1oc(-c2ccccc2)nc1/C=C1/C(Cl)=Nc2ccccc21
inactive: dose: 100.0 mg/kg/injection, schedule: Q01DX001 (ip), vehicle: saline with Tween-80 99 % of control | dose: 200.0 mg/kg/injection, schedule: Q01DX001 (ip), vehicle: saline with Tween-80 99 % of control | dose: 400.0 mg/kg/injection, schedule: Q01DX001 (ip), vehicle: saline with Tween-80 100 % of control

O[C@@H]1c2sccc2C2NC21 (stereo not given in full)
inactive: dose: 50.0 mg/kg/injection, schedule: Q01DX001 (ip), vehicle: saline 98 % of control | dose: 100.0 mg/kg/injection, schedule: Q01DX001 (ip), vehicle: saline 95 % of control | dose: 200.0 mg/kg/injection, schedule: Q01DX001 (ip), vehicle: saline 98 % of control

CC(=O)NC1CC(=O)N(c2ccc(Cl)cc2)C1=O (stereo not given)
inactive: [1] 96 % of control | [2] 96 % of control | dose: 100.0 mg/kg/injection, schedule: Q04DX003 (ip), vehicle: Klucel (hydroxypropylcellulose) (HPC) 102 % of control | dose: 200.0 mg/kg/injection, schedule: Q04DX003 (ip), vehicle: Klucel (hydroxypropylcellulose) (HPC) 101 % of control

CC12CCC(C3(C)CCC4CC3(O)C4)C(CO)C1CCC2=O (stereo not given)
inactive: dose: 7.5 mg/kg/injection, schedule: Q01DX005 (ip), vehicle: Klucel (hydroxypropylcellulose) (HPC) 96 % of control | dose: 15.0 mg/kg/injection, schedule: Q01DX005 (ip), vehicle: Klucel (hydroxypropylcellulose) (HPC) 103 % of control | dose: 30.0 mg/kg/injection, schedule: Q01DX005 (ip), vehicle: Klucel (hydroxypropylcellulose) (HPC) 98 % of control

CN(C)CCCNC(=O)NCCCCCCNC(=O)NCCCN(C)C
inactive: [10] 93 % of control | [11] 86 % of control

O=[N+]([O-])c1ccc(C2CC(c3ccccc3)=Nc3ccccc3S2)cc1 (stereo not given)
inactive: dose: 12.5 mg/kg/injection, schedule: Q01DX009 (ip), vehicle: saline 97 % of control | [12] 92 % of control | [4] 97 % of control

Cc1nn(C(=S)S)c(C)c1N=Nc1ccc(O)cc1
inactive: [10] 100 % of control | [11] 102 % of control | [13] 101 % of control

CC(O)C(=O)NCCO (stereo not given)
inactive: dose: 50.0 mg/kg/injection, schedule: Q01DX005 (ip), vehicle: saline 99 % of control | dose: 100.0 mg/kg/injection, schedule: Q01DX005 (ip), vehicle: saline 93 % of control | dose: 200.0 mg/kg/injection, schedule: Q01DX005 (ip), vehicle: saline 100 % of control

CCOc1ccc(NC(=O)C(=O)NNC(=S)NC)cc1
inactive: [14] 94 % of control | [15] 92 % of control | [16] 92 % of control and 97 % of control

O=[N+]([O-])c1ccc(C(Nc2nncs2)Nc2nncs2)cc1
inactive: dose: 50.0 mg/kg/injection, schedule: Q01DX005 (ip), vehicle: Klucel (hydroxypropylcellulose) (HPC) 100 % of control | dose: 100.0 mg/kg/injection, schedule: Q01DX005 (ip), vehicle: Klucel (hydroxypropylcellulose) (HPC) 103 % of control | dose: 200.0 mg/kg/injection, schedule: Q01DX005 (ip), vehicle: Klucel (hydroxypropylcellulose) (HPC) 119 % of control

Cc1ccc2oc(-c3nnc(N)s3)cc(=O)c2c1
inactive: [10] 100 % of control | [11] 100 % of control | [13] 93 % of control

CNC(=O)NC(c1cc(OC)c(O)c(OC)c1)c1cc2c(cc1O)OCO2 (stereo not given)
inactive: [17] 95 % of control | [18] 94 % of control | dose: 240.0 mg/kg/injection, schedule: Q01DX005 (ip), vehicle: Klucel (hydroxypropylcellulose) (HPC) 87 % of control

COc1ccc(/C=N/NC(=O)c2ccc(Cl)cc2Cl)cc1OC
inactive: dose: 60.0 mg/kg/injection, schedule: Q01DX005 (ip), vehicle: saline with Tween-80 96 % of control | dose: 120.0 mg/kg/injection, schedule: Q01DX005 (ip), vehicle: saline with Tween-80 96 % of control | dose: 240.0 mg/kg/injection, schedule: Q01DX005 (ip), vehicle: saline with Tween-80 92 % of control

Cc1cc(=O)n(-c2ccc(S(=O)(=O)N=C(N)N)cc2)c(C)c1C(=O)O
inactive: [10] 102 % of control | [11] 106 % of control | [13] 103 % of control

NC(N)=NCC(NS(=O)(=O)c1ccccc1)C(=O)O (stereo not given)
inactive: [1] 111 % of control | [2] 111 % of control | [3] 104 % of control

CCCCCCCCCCCCSC(SCCCCCCCCCCCC)SCCCCCCCCCCCC
inactive: [14] 97 % of control | [15] 92 % of control | [16] 99 % of control | dose: 100.0 mg/kg/injection, schedule: Q01DX009 (ip), vehicle: saline with Tween-80 106 % of control

[Ag].[Ag].[NH-]S(=O)(=O)c1ccc(N=Nc2cc(N=Nc3ccc(S([NH-])(=O)=O)cc3)c3c(NC(=O)C(Cl)Cl)cccc3c2OC(=O)C(Cl)Cl)cc1.[c-]1nccs1.[c-]1nccs1
inactive: [14] 91 % of control | [15] 100 % of control | [16] 88 % of control and 93 % of control

CCNC(=O)C(CCO)NC(=O)OCc1ccccc1 (stereo not given)
inactive: dose: 12.5 mg/kg/injection, schedule: Q01DX009 (ip), vehicle: distilled water + Tween-80 118 % of control | dose: 25.0 mg/kg/injection, schedule: Q01DX009 (ip), vehicle: distilled water + Tween-80 101 % of control | dose: 50.0 mg/kg/injection, schedule: Q01DX009 (ip), vehicle: distilled water + Tween-80 110 % of control

O=Cc1ccc2c(c1)OCCOCCOCCOCCO2
inactive: [12] 100 % of control and 97 % of control | [4] 99 % of control and 111 % of control | [5] 105 % of control and 94 % of control | [6] 102 % of control and 92 % of control

C1COCCOCCOCCOCCO1.[Cl][Sn]([Cl])([Cl])[Cl]
inactive: [17] 100 % of control | [18] 99 % of control

O=C(CCl)NC1(C(=O)O)CCCC1
inactive: [1] 94 % of control | [2] 90 % of control | [3] 97 % of control

O=C1C2CCC(N1c1ccc(F)cc1)n1c(=O)n(-c3ccccc3)c(=O)n12 (stereo not given)
inactive: [7] 104 % of control | [8] 94 % of control | [9] 100 % of control

CCCCCCC(=O)Nc1ncc([N+](=O)[O-])s1
inactive: [1] 106 % of control | [2] 106 % of control | [3] 100 % of control

COc1ccc(C(O)C/[N+]([O-])=C/c2ncc([N+](=O)[O-])n2C)cc1 (stereo not given)
inactive: [4] 97 % of control | [5] 100 % of control | [6] 106 % of control
